Laboratory results reported in patent US20200305483A1, “SOURNESS ENHANCERS COMPRISING A CYCLOHEXANECARBOXYLIC ACID” (Firmenich SA, priority 2017, published 2020).

Legend:
Type in all cases: in vivo
[1] = Paired comparison of sourness, model system comprising citric and lactic acid; details: 50 ppm in 5% sucrose / 0.07% citric acid / 0.09% lactic acid, pH 2.9 (±0.02), 95% confidence level
Description: (§1) A sucrose (5% by weight), citric acid (0.07% by weight), and lactic acid (0.09% by weight) solution was prepared and used for evaluating the sourness enhancement effect of a cyclohexanecarboxylic acid having the structure: The evaluation consisted of (i) a test solution of 50 ppm of the cyclohexanecarboxylic acid in the sucrose/citric-lactic acid solution; and (ii) a control solution comprising the sucrose/citric-lactic acid solution only. 41 subjects were asked to select out more sour sample in each pair. The pH of the samples was 2.9 (±0.02).

[2] = Paired comparison study (2-AFC) of sourness, model system comprising malic acid; details: 50 ppm in 5% sucrose / 0.05% malic acid, pH 3.1 (±0.02), 95% confidence level
Description: A sucrose (5% by weight) and malic acid (0.05% by weight) solution was prepared and used for evaluating the sourness enhancement effect of a cyclohexanecarboxylic acid having the structure: The evaluation consisted of (i) a test solution of 50 ppm of the cyclohexanecarboxylic acid in the sucrose/malic acid solution; and (ii) a control solution comprising the sucrose/malic acid solution only. In a repeat experiment using 41 trained subjects, 41 subjects were asked to select the more sour sample in each pair, in a paired comparison study (2-AFC). The pH of the samples was 3.1 (±0.02). 28 out of 41 subjects found the sample containing compound I at 50 ppm was more sour at a 95% confidence level.

[3] = Paired comparison of sourness, model system comprising tartaric acid; details: 50 ppm in 5% sucrose / 0.05% tartaric acid, pH 2.9 (±0.02), 95% confidence level
Description: as §1, with “weight) and tartaric” for “weight), citric”, “(0.05%” for “(0.07% by weight), and lactic acid (0.09%”, “sucrose/tartaric” for “sucrose/citric-lactic”

[4] = Sensory evaluation of sweet, sour and astringent intensities, model system comprising malic acid
Description: A sucrose (5% by weight) and malic acid (0.05% by weight) solution was prepared and used for evaluating the sourness enhancement effect of a cyclohexanecarboxylic acid having the structure: The evaluation consisted of (i) a test solution of 50 ppm of the cyclohexanecarboxylic acid in the sucrose/malic acid solution; and (ii) a control solution comprising the sucrose/malic acid solution only. 27 trained panelists were asked to evaluate the sweet, sour and astringent intensities for each sample on a linear scale from 0 to 10, where 0 corresponded to “no taste” and 10 corresponded to “too strong to taste”.

[5] = Sensory evaluation of sweet, sour and astringent intensities, model system comprising citric acid
Description: A sucrose (5% by weight), and citric acid (0.05% by weight) solution was prepared and used for evaluating the sourness enhancement effect of a cyclohexanecarboxylic acid having the structure: The evaluation consisted of (i) a test solution of 50 ppm of the cyclohexanecarboxylic acid in the sucrose/citric acid solution; and (ii) a control solution comprising the sucrose/citric acid solution only. 28 trained panelists were asked to evaluate the sweet, sour and astringent intensities for each sample on a linear scale from 0 to 10, where 0 correlated with “no taste” and 10 correlated with “too strong to taste”.

[6] = 50 ppm (by weight) in sucrose/malic acid solution, versus reference sample
[7] = 50 ppm (by weight) in sucrose/citric acid solution, versus reference sample

In the case of `O=C(/C=C/c1ccc(O)c(O)c1)O[C@@H]1C[C@](O)(C(=O)O)C[C@@H](O)[C@H]1O` [compound I], the “subjects who found that adding the compound increased sourness” value [1] is reported as 29 out of 41 subjects, the “subjects who found the sample containing the compound more sour” value [2] is reported as 28 out of 41 subjects and the “subjects who found that adding the compound increased sourness” value [3] is reported as 28 out of 41 subjects. The “enhancement of astringency intensity” value [4, 6] was 24.0%, the “enhancement of sourness intensity” value [4, 6] was 22.5% and the “sourness intensity (tested sample)” value ([4]; 50 ppm in 5% sucrose / 0.05% malic acid, 27 trained panelists, linear scale 0 to 10, reference sample 4.0, 95% confidence level) was 4.9. For the same compound, the “astringency intensity (tested sample)” value ([4]; 50 ppm in 5% sucrose / 0.05% malic acid, 27 trained panelists, scale 0 to 10, reference sample 2.5, 99% confidence level) was 3.1, the “sweet intensity, change versus reference sample” value ([4]; 50 ppm in 5% sucrose / 0.05% malic acid, pH value also unchanged) was “Without changing” and the “change of astringency intensity” value [5, 7] was 28.0%. The “decrease of sweetness intensity” value [5, 7] was 11.6%, the “astringency intensity (tested sample)” value ([5]; 50 ppm in 5% sucrose / 0.05% citric acid, 28 trained panelists, scale 0 to 10, reference sample 2.5) was 3.2 and the “sweetness intensity (tested sample)” value ([5]; 50 ppm in 5% sucrose / 0.05% citric acid, 28 trained panelists, scale 0 to 10, reference sample 4.3, 95% confidence level) was 3.8. The “sourness intensity, change versus reference sample” value ([5]; 50 ppm in 5% sucrose / 0.05% citric acid, pH value also unchanged) was “Without changing”.
